According to article PMC7464159, “Triple Negative Breast Cancer and Breast Epithelial Cells Differentially Reprogram Glucose and Lipid Metabolism upon Treatment with Triterpenic Acids” (Biomolecules, 2020):

System: MDA-MB-231 cells
Assay: 1H NMR metabolomics of polar (aqueous) cell extracts
Assay type: cell-based, human
Procedure: MDA-MB-231 and MCF-10A cells were seeded in 10-cm-diameter Petri dishes at a density of 6 × 10^5 cells/mL (10 mL per dish) and cultured for 24 h at 37 °C. […] Vehicle solvent control cells received DMSO (0.10% v/v). Samples were collected immediately after 48 h incubation or, to assess cellular recovery, medium was replaced with fresh growth medium (without TAs), and cells were incubated for additional 24 h before collection (48 + 24 h samples). Four independent assays were performed.
After incubation, culture medium was collected and centrifuged (1000× g, 5 min) and the supernatant stored at −80 °C until analysis. Culture medium without cells was placed under the same conditions and collected. Cell extraction was performed as described by Carrola et al.. Briefly, cells were washed four times with PBS and extracted with a mixture of methanol:chloroform:water (1:1:0.7). The resulting polar and organic phases were collected and then dried under vacuum or under a stream of nitrogen gas, respectively. All samples were stored at −80 °C and, at the time of analysis, dried polar extracts were reconstituted in 600 µL of deuterated phosphate buffer (100 mM, pH 7.4) containing 0.1 mM TSP-d4, while organic extracts were reconstituted in deuterated chloroform containing 0.03% TMS. Regarding medium samples, 540 μL were mixed with 60 μL of D2O containing 0.25% TSP-d4. Prior to analysis, 550 μL of each sample were transferred to 5 mm NMR tubes.
^1H NMR spectra of all samples were acquired on a Bruker Avance III HD 500 NMR spectrometer (University of Aveiro, Portuguese NMR Network) operating at 500.13 MHz for ^1H observation equipped with a 5 mm TXI probe. Standard 1D spectra (Bruker pulse programs ‘noesypr1d’, with water suppression, for medium samples and aqueous extracts, and ‘zg’ for organic extracts) were recorded with a 7002.8 Hz spectral width, 32 k data points, a 2 s relaxation delay and 512 scans. Spectral processing comprised exponential multiplication with 0.3 Hz line broadening, zero filling to 64 k data points, manual phasing, baseline correction, and chemical shift calibration to the TSP or TMS signal at 0 ppm. 2D ^1H-^1H total correlation (TOCSY) spectra, ^1H-^13C heteronuclear single quantum correlation (HSQC) spectra and J-resolved spectra were also registered for selected samples to assist spectral assignment. Metabolites were identified with the support of 2D spectra and the spectral reference databases BBIOREFCODE-2-0-0 (Bruker Biospin, Rheinstetten, Germany) and HMDB [28]. Selected signals were then integrated using the AmixViewer software […] (version 3.9.14, Bruker BioSpin, Rheinstetten, Germany) and normalized by the total spectral area. The magnitude of each metabolite change was assessed through the percentage of variation (and its respective error) in exposed samples relatively to controls, and through the effect size (ES) adjusted for small sample numbers (and respective standard error). Metabolite variations with absolute ES greater than 0.8 were expressed in a heatmap, colored as a function of the percentage of variation, employing the R statistical software.

C=C(C)[C@@H]1CC[C@]2(C(=O)O)CC[C@]3(C)[C@H](CC[C@@H]4[C@@]5(C)CC[C@H](O)C(C)(C)[C@@H]5CC[C@]43C)[C@@H]12 [BA, betulinic acid]
ATP %var (BA 5µM, 48h): 0%
Acetate %var (BA 5µM, 48h): 0%
Ala %var (BA 5µM, 48h): -12.64%
Asp %var (BA 5µM, 48h): -30.52%
Choline %var (BA 5µM, 48h): 10.16%
Citrate %var (BA 5µM, 48h): -40.97%
Cr %var (BA 5µM, 48h): 22.45%
Fumarate %var (BA 5µM, 48h): -35.42%
GPC %var (BA 5µM, 48h): 13.50%
GSH %var (BA 5µM, 48h): -15.77%
Gln %var (BA 5µM, 48h): -28.49%
Glu %var (BA 5µM, 48h): -24.61%
Gly %var (BA 5µM, 48h): 0%
Ile %var (BA 5µM, 48h): 14.68%
Lactate %var (BA 5µM, 48h): 53.08%
Leu %var (BA 5µM, 48h): 15.91%
PC %var (BA 5µM, 48h): -24.96%
PCr %var (BA 5µM, 48h): -19.36%
Phe %var (BA 5µM, 48h): 6.80%
Pro %var (BA 5µM, 48h): 16.73%
Tau %var (BA 5µM, 48h): 6.09%
Tyr %var (BA 5µM, 48h): 8.11%
Val %var (BA 5µM, 48h): 18.46%
myo-Ino %var (BA 5µM, 48h): -8.23%
ATP %var (BA 5µM, 48h+24h): -7.54%
Acetate %var (BA 5µM, 48h+24h): 0%
Ala %var (BA 5µM, 48h+24h): -7.44%
Asp %var (BA 5µM, 48h+24h): 0%
Choline %var (BA 5µM, 48h+24h): 0%
Citrate %var (BA 5µM, 48h+24h): -12.45%
Cr %var (BA 5µM, 48h+24h): 0%
Fumarate %var (BA 5µM, 48h+24h): 0%
GPC %var (BA 5µM, 48h+24h): 0%
GSH %var (BA 5µM, 48h+24h): 0%
Gln %var (BA 5µM, 48h+24h): 0%
Glu %var (BA 5µM, 48h+24h): 0%
Gly %var (BA 5µM, 48h+24h): -8.57%
Ile %var (BA 5µM, 48h+24h): 0%
Lactate %var (BA 5µM, 48h+24h): 0%
Leu %var (BA 5µM, 48h+24h): 0%
PC %var (BA 5µM, 48h+24h): 0%
PCr %var (BA 5µM, 48h+24h): 0%
Phe %var (BA 5µM, 48h+24h): 0%
Pro %var (BA 5µM, 48h+24h): 0%
Tau %var (BA 5µM, 48h+24h): 0%
Tyr %var (BA 5µM, 48h+24h): 0%
Val %var (BA 5µM, 48h+24h): 0%
myo-Ino %var (BA 5µM, 48h+24h): -6.52%
ATP %var (BA 15µM, 48h): 0%
Acetate %var (BA 15µM, 48h): 21.07%
Ala %var (BA 15µM, 48h): -10.34%
Asp %var (BA 15µM, 48h): -12.45%
Choline %var (BA 15µM, 48h): 12.46%
Citrate %var (BA 15µM, 48h): -51.74%
Cr %var (BA 15µM, 48h): 18.99%
Fumarate %var (BA 15µM, 48h): -37.50%
GPC %var (BA 15µM, 48h): 26.27%
GSH %var (BA 15µM, 48h): -25.87%
Gln %var (BA 15µM, 48h): -20.94%
Glu %var (BA 15µM, 48h): -37.41%
Gly %var (BA 15µM, 48h): -9.59%
Ile %var (BA 15µM, 48h): 30.97%
Lactate %var (BA 15µM, 48h): 55.73%
Leu %var (BA 15µM, 48h): 33.86%
PC %var (BA 15µM, 48h): -38.62%
PCr %var (BA 15µM, 48h): -22.44%
Phe %var (BA 15µM, 48h): 24.06%
Pro %var (BA 15µM, 48h): 21.93%
Tau %var (BA 15µM, 48h): 7.79%
Tyr %var (BA 15µM, 48h): 28.53%
Val %var (BA 15µM, 48h): 38.79%
myo-Ino %var (BA 15µM, 48h): -18.58%
number of intracellular polar metabolites consistently altered (BA 15µM, 48h): 23
ATP %var (BA 15µM, 48h+24h): -15.36%
Acetate %var (BA 15µM, 48h+24h): 22.70%
Ala %var (BA 15µM, 48h+24h): -12.62%
Asp %var (BA 15µM, 48h+24h): 0%
Choline %var (BA 15µM, 48h+24h): 0%
Citrate %var (BA 15µM, 48h+24h): -19.78%
Cr %var (BA 15µM, 48h+24h): 0%
Fumarate %var (BA 15µM, 48h+24h): 0%
GPC %var (BA 15µM, 48h+24h): 0%
GSH %var (BA 15µM, 48h+24h): 0%
Gln %var (BA 15µM, 48h+24h): -5.26%
Glu %var (BA 15µM, 48h+24h): -11.90%
Gly %var (BA 15µM, 48h+24h): -31.75%
Ile %var (BA 15µM, 48h+24h): 0%
Lactate %var (BA 15µM, 48h+24h): 0%
Leu %var (BA 15µM, 48h+24h): 0%
PC %var (BA 15µM, 48h+24h): 0%
PCr %var (BA 15µM, 48h+24h): -14.19%
Phe %var (BA 15µM, 48h+24h): 0%
Pro %var (BA 15µM, 48h+24h): 0%
Tau %var (BA 15µM, 48h+24h): 0%
Tyr %var (BA 15µM, 48h+24h): 0%
Val %var (BA 15µM, 48h+24h): 0%
myo-Ino %var (BA 15µM, 48h+24h): -17.84%

C[C@H]1[C@H](C)CC[C@]2(C(=O)O)CC[C@]3(C)C(=CC[C@@H]4[C@@]5(C)CC[C@H](O)C(C)(C)[C@@H]5CC[C@]43C)[C@H]12 [UA, ursolic acid]
ATP %var (UA 10µM, 48h): 0%
Acetate %var (UA 10µM, 48h): 0%
Ala %var (UA 10µM, 48h): 0%
Asp %var (UA 10µM, 48h): 0%
Choline %var (UA 10µM, 48h): -6.23%
Citrate %var (UA 10µM, 48h): -23.26%
Cr %var (UA 10µM, 48h): 0%
Fumarate %var (UA 10µM, 48h): 0%
GPC %var (UA 10µM, 48h): 9.94%
GSH %var (UA 10µM, 48h): -7.40%
Gln %var (UA 10µM, 48h): -13.00%
Glu %var (UA 10µM, 48h): 0%
Gly %var (UA 10µM, 48h): 0%
Ile %var (UA 10µM, 48h): 0%
Lactate %var (UA 10µM, 48h): 0%
Leu %var (UA 10µM, 48h): 0%
PC %var (UA 10µM, 48h): -7.00%
PCr %var (UA 10µM, 48h): -13.59%
Phe %var (UA 10µM, 48h): 0%
Pro %var (UA 10µM, 48h): 0%
Tau %var (UA 10µM, 48h): 0%
Tyr %var (UA 10µM, 48h): 0%
Val %var (UA 10µM, 48h): 0%
myo-Ino %var (UA 10µM, 48h): 0%
ATP %var (UA 10µM, 48h+24h): 0%
Acetate %var (UA 10µM, 48h+24h): 0%
Ala %var (UA 10µM, 48h+24h): 0.00%
Asp %var (UA 10µM, 48h+24h): 0.00%
Choline %var (UA 10µM, 48h+24h): 0%
Citrate %var (UA 10µM, 48h+24h): -10.99%
Cr %var (UA 10µM, 48h+24h): 0%
Fumarate %var (UA 10µM, 48h+24h): 0%
GPC %var (UA 10µM, 48h+24h): 0%
GSH %var (UA 10µM, 48h+24h): 0%
Gln %var (UA 10µM, 48h+24h): 0%
Glu %var (UA 10µM, 48h+24h): 0%
Gly %var (UA 10µM, 48h+24h): -7.50%
Ile %var (UA 10µM, 48h+24h): 0%
Lactate %var (UA 10µM, 48h+24h): 0%
Leu %var (UA 10µM, 48h+24h): 0%
PC %var (UA 10µM, 48h+24h): 0%
PCr %var (UA 10µM, 48h+24h): 0%
Phe %var (UA 10µM, 48h+24h): 0%
Pro %var (UA 10µM, 48h+24h): 0%
Tau %var (UA 10µM, 48h+24h): 0%
Tyr %var (UA 10µM, 48h+24h): 0%
Val %var (UA 10µM, 48h+24h): 0%
myo-Ino %var (UA 10µM, 48h+24h): 0%
ATP %var (UA 20µM, 48h): 0%
Acetate %var (UA 20µM, 48h): 10.69%
Ala %var (UA 20µM, 48h): 0%
Choline %var (UA 20µM, 48h): 0%
Citrate %var (UA 20µM, 48h): -19.44%
Cr %var (UA 20µM, 48h): 0%
GPC %var (UA 20µM, 48h): 10.72%
GSH %var (UA 20µM, 48h): -7.50%
Gln %var (UA 20µM, 48h): 0%
Glu %var (UA 20µM, 48h): 0%
Gly %var (UA 20µM, 48h): -15.08%
Ile %var (UA 20µM, 48h): 0%
Lactate %var (UA 20µM, 48h): 0%
Leu %var (UA 20µM, 48h): 0%
PC %var (UA 20µM, 48h): -6.17%
PCr %var (UA 20µM, 48h): -10.77%
Phe %var (UA 20µM, 48h): 0%
Pro %var (UA 20µM, 48h): 0%
Tau %var (UA 20µM, 48h): 11.82%
Tyr %var (UA 20µM, 48h): 0%
Val %var (UA 20µM, 48h): 0%
myo-Ino %var (UA 20µM, 48h): 0%
number of intracellular polar metabolites consistently altered (UA 20µM, 48h): 10
ATP %var (UA 20µM, 48h+24h): -9.33%
Acetate %var (UA 20µM, 48h+24h): 11.02%
Ala %var (UA 20µM, 48h+24h): -12.11%
Asp %var (UA 20µM, 48h+24h): 32.91%
Choline %var (UA 20µM, 48h+24h): 0%
Citrate %var (UA 20µM, 48h+24h): -15.02%
Cr %var (UA 20µM, 48h+24h): 0%
Fumarate %var (UA 20µM, 48h+24h): -10.34%
GPC %var (UA 20µM, 48h+24h): -6.52%
GSH %var (UA 20µM, 48h+24h): -8.79%
Gln %var (UA 20µM, 48h+24h): 0%
Glu %var (UA 20µM, 48h+24h): 0%
Gly %var (UA 20µM, 48h+24h): -25.85%
Ile %var (UA 20µM, 48h+24h): 0%
Lactate %var (UA 20µM, 48h+24h): 0%
Leu %var (UA 20µM, 48h+24h): 0%
PC %var (UA 20µM, 48h+24h): 21.66%
PCr %var (UA 20µM, 48h+24h): 0%
Phe %var (UA 20µM, 48h+24h): 0%
Pro %var (UA 20µM, 48h+24h): 0%
Tau %var (UA 20µM, 48h+24h): 0%
Tyr %var (UA 20µM, 48h+24h): 0%
Val %var (UA 20µM, 48h+24h): 0%
myo-Ino %var (UA 20µM, 48h+24h): -9.02%
